# What was measured:
# Assay in all cases: HPPD activity assay, tolerance index
# HPPD Seq ID 67 = type: biochemical, Zea mays; settings: Table 12, normalized to reference SEQ ID NO:53
# Protocol: (§1) HPPD produces homogentisic acid and CO2 from 4-hydroxyphenylpyruvate (4-HPP) and 02. The activity assay for HPPD is based on the analysis of homogentisic acid by reversed phase HPLC. The assay mixture can contain 150 mM potassium phosphate buffer pH 7.0, 50 mM L-ascorbic acid, 100 μM Catalase (Sigma-Aldrich), 1 μM FeSO4 and 0.2 units of purified HPPD enzyme in a total volume of 505 μl. 1 unit is defined as the amount of enzyme that is required to produce 1 nmol of HGA per minute at 20° C.
# (§2) After a preincubation of 30 min the reaction is started by adding 4-HPP to a final concentration of 0.05 mM. The reaction is allowed to proceed for 45 min at room temperature. The reaction is stopped by the addition of 50 μl of 4.5 M phosphoric acid. The sample is filtered using a […] pore size PVDF filtration device.
# (§3) 5 μl of the cleared sample is analyzed on an UPLC HSS T3 column (particle size 1.8 μm, dimensions 2.1×50 mm; Waters) by isocratic elution using 90% 20 mM NaH2PO4 pH 2.2, 10% methanol (v/v).
# (§4) HGA is detected electrochemically at 750 mV (mode: DC; polarity: positive) and quantified by integrating peak areas (Empower software; Waters).
# (§5) Inhibitors are dissolved in DMSO (dimethylsulfoxide) to a concentration of 0.5 mM. From this stock solution serial five-fold dilutions are prepared in DMSO, which are used in the assay. […] IC50 values are calculated using non-linear regression. […]
# HPPD Seq ID 69 = type: biochemical, Zea mays; settings: Table 12, normalized to reference SEQ ID NO:53
# Protocol: as §1, §2, §3, §4, §5
# Picrophilus HPPD = type: biochemical, Picrophilus torridus; settings: Table 12, normalized to reference SEQ ID NO:53
# Protocol: as §1, §2, §3, §4, §5
# Synechococcus HPPD = type: biochemical; settings: Table 12, normalized to reference SEQ ID NO:53
# Protocol: as §1, §2, §3, §4
# (§6) Inhibitors are dissolved in DMSO (dimethylsulfoxide) to a concentration of 0.5 mM. From this stock solution serial five-fold dilutions are prepared in DMSO, which are used in the assay. The respective inhibitor solution accounts for 1% of the assay volume. Thus, final inhibitor concentrations range from 5 μM to 320 μM, respectively. […] IC50 values are calculated using non-linear regression.
# (§7) Using methods which are described in the above examples or well known in the art, purified, recombinant wild-type HPPD enzymes are characterized with respect to their kinetic properties and sensitivity towards HPPD inhibiting herbicides. Apparent michaelis constants (Km) and maximal reaction velocities (Vmax) are calculated by non-linear regression with the software GraphPad Prism 5 (GraphPad Software, La Jolla, USA) using a substrate inhibition model. […] Weighted means (by standard error) of Km and IC50 values are calculated from at least three independent experiments. […]
# [1] = system: Rhodococcus HPPD (Seq ID 44); type: biochemical; settings: Table 12; Rhodococcus (Seq ID 44); normalized to reference SEQ ID NO:53
# Protocol: as §1, §2, §3, §4, §6, §7
# [2] = system: Rhodococcus HPPD (Seq ID 46); type: biochemical; settings: Table 12; Rhodococcus (Seq ID 46); normalized to reference SEQ ID NO:53
# Protocol: as §1, §2, §3, §4, §6, §7
smiles,measurement,setting,value
"COc1no[nH]/c1=N/C(=O)c1ccc2c(c1Cl)S(=O)(=O)CCC2(C)C [Inhibitor 1, (NE)-8-chloro-N-(4-methoxy-1,2,5-oxadiazol-3-ylidene)-4,4-dimethyl-1,1-dioxo-2,3-dihydrothiochromene-7-carboxamide]",TI Inhibitor 1 (normalized tolerance index),HPPD Seq ID 67,107.3
same,TI Inhibitor 1 (normalized tolerance index),HPPD Seq ID 69,13.2
same,TI Inhibitor 1 (normalized tolerance index),Picrophilus HPPD,0.4
same,TI Inhibitor 1 (normalized tolerance index),Synechococcus HPPD,11.9
same,TI Inhibitor 1 (normalized tolerance index),[1],25.2
same,TI Inhibitor 1 (normalized tolerance index),[2],1.2
